Laboratory results reported in patent US11992490B2, “Use of JAK1 inhibitors for the treatment of cutaneous lupus erythematosus and Lichen planus (LP)” (Incyte Corporation, priority 2019, dated 2024).

Key:
[1] = tested on: JAK1-phosphorylation in HaCaT keratinocytes; assay: JAK1-phosphorylation (anti-pJAK1 immunofluorescence) in eNA-stimulated HaCaT; assay type: cell-based, human; conditions: inhibitor 1 μM
[2] = molecular target: human JAK1 (a.a. 837-1142) (Homo sapiens, UniProt P23458); assay: In vitro JAK kinase assay (HTRF), JAK1; assay type: biochemical; conditions: 1 mM ATP
[3] = molecular target: human JAK2 (a.a. 828-1132) (Homo sapiens (Human), UniProt O60674); assay: In vitro JAK kinase assay (HTRF), JAK2; assay type: biochemical; conditions: JAK2/JAK1 IC50 ratio, 1 mM ATP
[4] = tested on: CLE-typical genes in NHEK; assay: Gene expression (RNA sequencing, KEGG pathways) in eNA-stimulated NHEK; assay type: cell-based, human; conditions: for Count: number of genes >2-fold downregulated: NHEK
Method: To analyze the functional principle and effect of JAK inhibition, the following established in vitro models of CLE were used. Immortalized keratinocytes (HaCaT), were acquired from CLS Cell Lines Service GmbH, Eppelheim, Germany), normal human epidermal keratinocytes (NHEKs, FC-0025) and Human epidermis equivalents (epiCS, CS-1001) from CellSystems, Troisdorf, Germany. These cell lines were cultured according the manufactures protocols. Cultured keratinocytes were stimulated with endogenous nucleic acids (eNA, 1.25 μg/mL) isolated from unstimulated keratinocytes using the “Genomic DNA from tissue” kit (Machery-Nagel, Dueren, Germany). Lipofectamine 2000 (Invitrogen, Carlsbad, USA) functioned as a transfection reagent (2.5 μL/mL). […] All experiments were implemented in biological triplicates. Enzyme-linked immunosorbent assays for human CXCL10 (DY266-05 R&D systems) were performed using DuoSet Ancillary Reagent Kit 2 (DY008 R&D systems) according to the supplied protocol, measured by Synergy HT Multi-Detection Multiplate Reader (BioTek, Winooski, VT, USA) and read out with Gen5 software (version 1.11.5).
To investigate the efficacy of pharmacological JAK1 inhibition, in vitro analyses in three different CLE-models were performed (i) NHEK-cells, (ii) HaCaT-cells and (iii) 3D epidermis equivalents.

TREX1−/− mice = assay: Topical treatment of CLE-like lesions in UV-stimulated lupus-prone TREX1-/- mice; assay type: in vivo, mouse; conditions: 1% topical, seven days
Source text: TREX1^−/− mice (generated on C57BL/6J background; Cancer Research Institute, London, UK) were bred and maintained under specific pathogen-free conditions at the animal core facility of UKB Bonn (HET, Bonn, Germany). TREX1^−/− mice (n=8) were back-shaved and treated with 0.2% DNFB (1-Fluor-2,4-dinitrobenzol, Sigma Aldrich). 4 days later, UV-irradiation on 3 sequential days started with 450 mJ/cm^2 UVB for 115 seconds per day using UV801KL (Waldmann, Villingen-Schwenningen, Germany). For 7 days 1% INCB039110 or vehicle solved in DMSO and olive oil (50 μL per mouse) were applied topically. Every day photos of mice were taken and every 2 days mice were weighed.

[5] = tested on: patients with systemic lupus erythematosus; conditions: cited from earlier work
SLE patients = conditions: cited from earlier work

human JAK2 (a.a. 828-1132), sequence (O60674 828-1132): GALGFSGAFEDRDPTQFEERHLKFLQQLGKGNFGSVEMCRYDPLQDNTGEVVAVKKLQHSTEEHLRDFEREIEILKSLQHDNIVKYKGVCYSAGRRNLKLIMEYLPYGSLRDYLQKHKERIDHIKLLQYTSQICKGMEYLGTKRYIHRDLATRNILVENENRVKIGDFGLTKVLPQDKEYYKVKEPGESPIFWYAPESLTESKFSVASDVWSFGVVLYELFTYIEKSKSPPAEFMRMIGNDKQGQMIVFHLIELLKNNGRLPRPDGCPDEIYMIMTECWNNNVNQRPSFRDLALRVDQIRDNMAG

N#CC[C@H](C1CCCC1)n1cc(-c2ncnc3[nH]ccc23)cn1 [Ruxolitinib, (3R)-3-cyclopentyl-3-[4-(7H-pyrrolo[2,3-d]pyrimidin-4-yl)-1H-pyrazol-1-yl]propanenitrile, reference compound]
activation of JAK1 (JAK1-phosphorylation) [1]: significantly decreased

N#CCC1(n2cc(-c3ncnc4[nH]ccc34)cn2)CN(C2CCN(C(=O)c3ccnc(C(F)(F)F)c3F)CC2)C1 [Compound 1, {1-{1-[3-Fluoro-2-(trifluoromethyl)isonicotinoyl]piperidin-4-yl}-3-[4-(7H-pyrrolo[2,3-d]pyrimidin-4-yl)-1H-pyrazol-1-yl]azetidin-3-yl}acetonitrile]
IC50 [2]: < 10 nM
JAK2/JAK1 [3]: >10
activation of JAK1 (JAK1-phosphorylation) [1]: significantly decreased
Count: number of genes >2-fold downregulated ([4]; Arachidonic acid metabolism hsa00590): 4
Count: number of genes >2-fold downregulated ([4]; Chemokine signalling pathway hsa04062): 5
Count: number of genes >2-fold downregulated ([4]; Cytokine-cytokine receptor interaction hsa04060): 9
Count: number of genes >2-fold downregulated ([4]; Cytosolic DNA-sensing pathway hsa04623): 3
Count: number of genes >2-fold downregulated ([4]; Ether lipid metabolism hsa00565): 3
Count: number of genes >2-fold downregulated ([4]; Linoleic acid metabolism hsa00591): 3
Count: number of genes >2-fold downregulated ([4]; Toll-like receptor signalling pathway hsa04620): 4
Count: number of genes >2-fold downregulated ([4]; alpha-Linolenic acid metabolism hsa00592): 3
downregulated expression of CLE-typical genes ([4]; eNA-stimulated NHEK, p<0.05): > 2 fold
histological features: epidermal thickness and infiltrating dermal immune cells (TREX1−/− mice): significantly improved
lesional skin regarding erythema, induration, scaling and size (TREX1−/− mice): continuously improved
lupus-skin-activity-score (adapted CLASI score) (TREX1−/− mice; compared to placebo-treated mice): significantly reduced

CCS(=O)(=O)N1CC(CC#N)(n2cc(-c3ncnc4[nH]ccc34)cn2)C1 [baricitinib]
efficacy in treatment of SLE ([5]; 2 mg or 4 mg once daily for 24 weeks, vs placebo): not effective
CLASI activity score ([5]; exploratory end point): no improvement

B1: anifrolumab: anti-IFNαβ-receptor antibody (antibody, chains of the INN, looked up)
heavy: EVQLVQSGAEVKKPGESLKISCKGSGYIFTNYWIAWVRQMPGKGLESMGIIYPGDSDIRYSPSFQGQVTISADKSITTAYLQWSSLKASDTAMYYCARHDIEGFDYWGRGTLVTVSSASTKGPSVFPLAPSSKSTSGGTAALGCLVKDYFPEPVTVSWNSGALTSGVHTFPAVLQSSGLYSLSSVVTVPSSSLGTQTYICNVNHKPSNTKVDKRVEPKSCDKTHTCPPCPAPEFEGGPSVFLFPPKPKDTLMISRTPEVTCVVVDVSHEDPEVKFNWYVDGVEVHNAKTKPREEQYNSTYRVVSVLTVLHQDWLNGKEYKCKVSNKALPASIEKTISKAKGQPREPQVYTLPPSREEMTKNQVSLTCLVKGFYPSDIAVEWESNGQPENNYKTTPPVLDSDGSFFLYSKLTVDKSRWQQGNVFSCSVMHEALHNHYTQKSLSLSPG
light: EIVLTQSPGTLSLSPGERATLSCRASQSVSSSFFAWYQQKPGQAPRLLIYGASSRATGIPDRLSGSGSGTDFTLTITRLEPEDFAVYYCQQYDSSAITFGQGTRLEIKRTVAAPSVFIFPPSDEQLKSGTASVVCLLNNFYPREAKVQWKVDNALQSGNSQESVTEQDSKDSTYSLSSTLTLSKADYEKHKVYACEVTHQGLSSPVTKSFNRGEC
CLASI skin score (SLE patients): significantly reduced
